Here are results for 10 compounds from ChEMBL document CHEMBL1201862, “PubChem BioAssay data set” (2004).

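Each compound was tested at five concentrations against cells in 96-well plates for 48 hours. GI50 = concentration required for 50% inhibition of growth.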 Calls of active or inactive are those of the source. Rule as the data show it: active = GI50 up to about 1.1 µM and inactive = higher. Some results are limits rather than exact numbers.

Some test systems named below: A498; A549; ACHN; CAKI-1; CCRF-CEM; COLO 205; HCT-116; HOP-62; M14; MDA-MB-231; MOLT-4; NCI-H460; NCI-H522; OVCAR-5; SF-539; SK-OV-3; SNB-19; SR; SW-620; UO-31.
Test in all cases: NCI-60 cell line screen, 48 h

Take `COc1cc(C2c3cc4c(cc3OC(N3CCNCC3)C2C)OCO4)cc(OC)c1OC` (stereo not given): the GI50 is 0.726 µM (active) with A498; 1.79 µM (inactive) with A549; 1.75 µM (inactive) with ACHN; 0.476 µM (active) with CAKI-1; 0.538 µM (active) in the assay on CCRF-CEM; 0.416 µM (active) in the assay with COLO 205. In addition, the GI50 in the assay on HCT-116 was 0.56 µM (active); with HOP-62 it was 1.13 µM (inactive); in the assay with M14, 0.873 µM (active); in the assay with MDA-MB-231, 0.403 µM (active); in the assay on MOLT-4, 1.16 µM (inactive); with NCI-H460, 0.94 µM (active). Moreover, the GI50 with NCI-H522 is 0.861 µM (active); in the assay with OVCAR-5 it was 5.13 µM (inactive); with SF-539, 0.344 µM (active); in the assay on SK-OV-3 it was 0.476 µM (active); in the assay with SNB-19 it was 0.912 µM (active); with SR it was 0.441 µM (active). The GI50 in the assay on SW-620 was 0.445 µM (active); in the assay with UO-31 it was 1.69 µM (inactive).

`CC(=O)C1=C(C)O[C@@H]2O[C@H](COCc3ccccc3)[C@@H](OCc3ccccc3)[C@H](O)[C@@H]2S1`: the GI50 was 25.1 µM (inactive) with A498; 27.8 µM (inactive) in the assay on A549; 23.3 µM (inactive) with ACHN; 49.3 µM (inactive) in the assay on CAKI-1; 0.855 µM (active) in the assay with CCRF-CEM; 22.2 µM (inactive) in the assay with COLO 205. Further, the GI50 in the assay on HCT-116 was 16.4 µM (inactive); in the assay on HOP-62 it was 19.5 µM (inactive); in the assay on M14, 20.4 µM (inactive); in the assay with MDA-MB-231 it was 20.3 µM (inactive); with MOLT-4, 14 µM (inactive); in the assay with NCI-H460 it was 17.5 µM (inactive). For the same compound, the GI50 in the assay with NCI-H522 was 15 µM (inactive); in the assay on OVCAR-5, 24.8 µM (inactive); with SF-539, 20 µM (inactive); in the assay with SK-OV-3 it was 25.1 µM (inactive); in the assay on SNB-19 it was 38 µM (inactive); with SR, 22 µM (inactive). For the same compound, the GI50 with SW-620 was 26.7 µM (inactive); in the assay on UO-31 it was 22 µM (inactive).

Take `Clc1ccc(Nc2nc(Cl)c3nc[nH]c3n2)cc1Cl`: the GI50 is 18.4 µM (inactive) with A498; 30.1 µM (inactive) with A549; 24.9 µM (inactive) in the assay with ACHN; 3.29 µM (inactive) with CAKI-1; 18.7 µM (inactive) with CCRF-CEM; 18.6 µM (inactive) in the assay on COLO 205. For the same compound, the GI50 in the assay on HCT-116 was 29.5 µM (inactive); in the assay with HOP-62 it was 15.9 µM (inactive); with M14 it was 36.7 µM (inactive); with MDA-MB-231, 21.1 µM (inactive); in the assay on MOLT-4 it was 24 µM (inactive); in the assay on NCI-H460, 14.5 µM (inactive). Moreover, the GI50 with NCI-H522 is 18.7 µM (inactive); with OVCAR-5 it was 48.8 µM (inactive); in the assay with SF-539 it was > 10 µM (inactive); in the assay on SK-OV-3, 33.2 µM (inactive); in the assay with SNB-19 it was 37.2 µM (inactive); in the assay on SR, 19.2 µM (inactive). The GI50 was 38 µM (inactive) in the assay on SW-620 and 26.9 µM (inactive) in the assay on UO-31.

With `COc1cc2c(c(O)c1OC)CC1CCC(=O)N1C2c1cccc2ccccc12` (stereo not given), the GI50 in the assay with A498 is 18.5 µM (inactive); with A549, 31.6 µM (inactive); in the assay with ACHN, 29.3 µM (inactive); in the assay on CAKI-1 it was 19.5 µM (inactive); in the assay with CCRF-CEM, 30.8 µM (inactive); in the assay on COLO 205 it was 15.6 µM (inactive). Moreover, the GI50 with HCT-116 is 20.4 µM (inactive); in the assay on HOP-62, 20.8 µM (inactive); in the assay with M14, 17.4 µM (inactive); in the assay with MDA-MB-231 it was 16.4 µM (inactive); in the assay with MOLT-4 it was 26.1 µM (inactive); in the assay with NCI-H460 it was 22.9 µM (inactive). In addition, the GI50 is 20.3 µM (inactive) in the assay with NCI-H522; 19.1 µM (inactive) with OVCAR-5; 16.1 µM (inactive) in the assay on SF-539; 18.9 µM (inactive) in the assay on SK-OV-3; 15.6 µM (inactive) in the assay on SNB-19; > 100 µM (inactive) in the assay with SR. The figures for the GI50 in the assay with SW-620 and in the assay on UO-31 were 27.7 µM (inactive) and 17.6 µM (inactive), respectively.

With `CC1=CC[C@H](C(C)C)C(C(O)[C@@H](C)O[Si](c2ccccc2)(c2ccccc2)C(C)(C)C)C1=O` (stereo not given in full), the GI50 with A498 is 18.6 µM (inactive); in the assay on A549 it was 14.7 µM (inactive); in the assay on ACHN, 15.6 µM (inactive); in the assay on CAKI-1 it was 14 µM (inactive); in the assay with CCRF-CEM, 19.5 µM (inactive); with COLO 205, 17.2 µM (inactive). The GI50 was 10.6 µM (inactive) in the assay with HCT-116; 20.9 µM (inactive) with HOP-62; 15.3 µM (inactive) in the assay with M14; 15.5 µM (inactive) in the assay on MDA-MB-231; 7.36 µM (inactive) in the assay on MOLT-4; 14.8 µM (inactive) in the assay with NCI-H460. The GI50 in the assay with NCI-H522 was 16.5 µM (inactive); in the assay with OVCAR-5, 18.9 µM (inactive); in the assay on SF-539 it was 20.1 µM (inactive); with SK-OV-3, 28.5 µM (inactive); in the assay on SNB-19, 17.3 µM (inactive); in the assay on SR, 14.5 µM (inactive). The figures for the GI50 in the assay with SW-620 and in the assay on UO-31 were 18.9 µM (inactive) and 15.2 µM (inactive), respectively.

In the case of `CC1=C[C@H]([C@H]2C=C(C)C(C(N)=O)=CN2Cc2c(Cl)cccc2Cl)N(Cc2c(Cl)cccc2Cl)C=C1C(N)=O`, the GI50 with A498 was 55.3 µM (inactive); in the assay on A549 it was > 75 µM (inactive); in the assay with ACHN, > 75 µM (inactive); with CAKI-1 it was > 75 µM (inactive); in the assay on CCRF-CEM, 45.4 µM (inactive); in the assay on COLO 205 it was > 75 µM (inactive). The GI50 in the assay with HCT-116, in the assay on HOP-62, with M14, with MDA-MB-231, in the assay with MOLT-4 and in the assay on NCI-H460 was > 75 µM (inactive) each time. Moreover, the GI50 was 57.1 µM (inactive) in the assay with NCI-H522; > 75 µM (inactive) in the assay on OVCAR-5; > 75 µM (inactive) with SF-539; > 75 µM (inactive) in the assay with SK-OV-3; > 75 µM (inactive) with SNB-19; > 75 µM (inactive) with SR. Further, the GI50 in the assay with SW-620 and in the assay with UO-31 was > 75 µM (inactive) throughout.

Consider `Cc1cccc(/C=N/NC(=S)NCCc2ccccn2)n1`, for which the GI50 with A498 was 34 µM (inactive); in the assay with A549 it was 36.6 µM (inactive); in the assay on ACHN, 13.3 µM (inactive); in the assay on CAKI-1 it was 26.7 µM (inactive); in the assay on CCRF-CEM, 9.89 µM (inactive); in the assay with COLO 205, 31.4 µM (inactive). The GI50 is 31.8 µM (inactive) with HCT-116; 18 µM (inactive) with HOP-62; 16.7 µM (inactive) in the assay on M14; 39 µM (inactive) with MDA-MB-231; 18.9 µM (inactive) with MOLT-4; 14.9 µM (inactive) with NCI-H460. The GI50 is 34.8 µM (inactive) in the assay with NCI-H522; 46.7 µM (inactive) with OVCAR-5; 26.7 µM (inactive) in the assay on SF-539; 14.1 µM (inactive) in the assay on SK-OV-3; 37.1 µM (inactive) in the assay with SNB-19; 28.4 µM (inactive) in the assay with SR. For the same compound, the GI50 is 42.5 µM (inactive) in the assay on SW-620 and 16.9 µM (inactive) in the assay with UO-31.

As for `Clc1ccc(C2NN=C3c4ccccc4OCC32)cc1` (stereo not given), the GI50 in the assay on A498 is 18.2 µM (inactive); in the assay on A549, 5.41 µM (inactive); with ACHN it was 14.9 µM (inactive); with CAKI-1, 12.2 µM (inactive); in the assay on CCRF-CEM, 4.29 µM (inactive); with COLO 205 it was 2.96 µM (inactive). Also, the GI50 with HCT-116 was 2.81 µM (inactive); in the assay on HOP-62 it was 6.71 µM (inactive); with M14 it was 2.84 µM (inactive); in the assay with MDA-MB-231 it was 2.39 µM (inactive); in the assay with MOLT-4, 4.43 µM (inactive); in the assay with NCI-H460, 4.3 µM (inactive). The GI50 was 1.5 µM (inactive) in the assay on NCI-H522; 8.87 µM (inactive) in the assay on OVCAR-5; 2.17 µM (inactive) with SF-539; 5.82 µM (inactive) in the assay with SK-OV-3; 5.42 µM (inactive) in the assay with SNB-19; 1.86 µM (inactive) in the assay on SR. The GI50 in the assay with SW-620 is 3.64 µM (inactive); with UO-31, 7.16 µM (inactive).

`O=[N+]([O-])c1ccc2nc(Cl)n[n+]([O-])c2c1`: the GI50 in the assay with A498 is 0.65 µM (active); in the assay with A549 it was 22 µM (inactive); in the assay with ACHN, 14 µM (inactive); in the assay on CAKI-1, 16 µM (inactive); with CCRF-CEM it was 1.06 µM (active); in the assay with COLO 205, 9.04 µM (inactive). For the same compound, the GI50 is 12.7 µM (inactive) with HCT-116; 17.1 µM (inactive) in the assay on HOP-62; 14.3 µM (inactive) in the assay with M14; 11.7 µM (inactive) in the assay with MDA-MB-231; 1.15 µM (inactive) in the assay on MOLT-4; 20.3 µM (inactive) with NCI-H460. For the same compound, the GI50 in the assay with NCI-H522 is 12 µM (inactive); with OVCAR-5, 17 µM (inactive); in the assay with SF-539, 11.7 µM (inactive); in the assay with SK-OV-3 it was 17.5 µM (inactive); in the assay with SNB-19 it was 25.5 µM (inactive); with SR, 2.2 µM (inactive). Further, the GI50 is 12.4 µM (inactive) in the assay with SW-620 and 17 µM (inactive) in the assay with UO-31.

In the case of `CC(C)(C)c1cc(OCc2nnc3sc(Cc4ccccc4)nn23)c(Cl)cc1OCc1nnc2sc(Cc3ccccc3)nn12`, the GI50 was 30.5 µM (inactive) with A498; 28.8 µM (inactive) in the assay with A549; 24.9 µM (inactive) in the assay on ACHN; 34.3 µM (inactive) in the assay on CAKI-1; 3.27 µM (inactive) with CCRF-CEM; 21.6 µM (inactive) in the assay with COLO 205. For the same compound, the GI50 was 24.3 µM (inactive) in the assay on HCT-116; 46.6 µM (inactive) with HOP-62; 29 µM (inactive) in the assay on M14; 19.3 µM (inactive) with MDA-MB-231; 17.3 µM (inactive) with MOLT-4; 17.7 µM (inactive) with NCI-H460. For the same compound, the GI50 with NCI-H522 is 37.2 µM (inactive); with OVCAR-5, 29 µM (inactive); in the assay on SF-539, 30.8 µM (inactive); in the assay with SK-OV-3, 34 µM (inactive); with SNB-19, 33.5 µM (inactive); in the assay with SR it was 3.52 µM (inactive). Moreover, the figures for the GI50 in the assay on SW-620 and in the assay on UO-31 were 26.7 µM (inactive) and 47.5 µM (inactive), respectively.
